From ChEMBL document CHEMBL5465560, “Selectivity Literature for EUbOPEN Chemogenomic Library” (2024)

What was measured:
[1] = biological target: Protein arginine N-methyltransferase 1 (Homo sapiens, UniProt Q99873); assay: Selectivity interaction (Scintillation proximity assay) EUB0000261b PRMT1
[2] = biological target: T1, Histone-arginine methyltransferase CARM1 (Homo sapiens, UniProt Q86X55); assay: Selectivity interaction (Scintillation proximity assay) EUB0000261b CARM1
T1 sequence (Q86X55 whole entry): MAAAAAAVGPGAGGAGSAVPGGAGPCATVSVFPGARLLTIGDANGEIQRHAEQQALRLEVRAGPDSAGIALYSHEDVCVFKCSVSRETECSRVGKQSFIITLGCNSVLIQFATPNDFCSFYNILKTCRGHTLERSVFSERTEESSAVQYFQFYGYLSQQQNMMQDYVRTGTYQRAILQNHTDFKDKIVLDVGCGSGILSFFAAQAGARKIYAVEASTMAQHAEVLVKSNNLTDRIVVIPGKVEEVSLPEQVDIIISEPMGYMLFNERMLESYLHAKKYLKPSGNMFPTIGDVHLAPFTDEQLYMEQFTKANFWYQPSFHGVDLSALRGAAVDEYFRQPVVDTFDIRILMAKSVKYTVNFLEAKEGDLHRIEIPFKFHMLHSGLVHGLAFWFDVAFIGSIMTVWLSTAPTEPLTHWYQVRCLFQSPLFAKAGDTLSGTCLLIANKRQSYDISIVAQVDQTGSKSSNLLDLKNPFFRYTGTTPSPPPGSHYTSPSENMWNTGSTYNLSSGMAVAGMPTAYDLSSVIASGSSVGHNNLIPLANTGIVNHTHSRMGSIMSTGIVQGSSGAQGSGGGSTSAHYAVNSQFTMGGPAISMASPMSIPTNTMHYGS

[3] = biological target: Protein arginine N-methyltransferase 3 (Homo sapiens, UniProt O60678); assay: Selectivity interaction (Scintillation proximity assay) EUB0000261b PRMT3
[4] = biological target: Protein arginine N-methyltransferase 6 (Homo sapiens, UniProt Q96LA8); assay: Selectivity interaction (Scintillation proximity assay) EUB0000261b PRMT6
Sequence of Protein arginine N-methyltransferase 6 (Q96LA8 whole entry): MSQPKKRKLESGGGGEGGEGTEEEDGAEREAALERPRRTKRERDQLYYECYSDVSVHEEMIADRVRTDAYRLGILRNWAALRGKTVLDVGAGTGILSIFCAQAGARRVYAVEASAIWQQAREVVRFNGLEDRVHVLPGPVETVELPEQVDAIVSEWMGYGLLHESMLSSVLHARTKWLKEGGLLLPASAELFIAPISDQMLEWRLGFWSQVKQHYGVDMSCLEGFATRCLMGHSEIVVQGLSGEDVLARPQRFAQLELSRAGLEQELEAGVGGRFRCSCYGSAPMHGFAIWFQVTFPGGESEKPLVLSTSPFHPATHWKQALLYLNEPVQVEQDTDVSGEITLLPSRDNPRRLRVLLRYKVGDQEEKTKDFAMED

[5] = biological target: Protein arginine N-methyltransferase 8 (Homo sapiens, UniProt Q9NR22); assay: Selectivity interaction (Scintillation proximity assay) EUB0000261b PRMT8
[6] = biological target: CDK15/Cyclin Y (Homo sapiens) (UniProt Q96Q40+Q8ND76); assay: Selectivity interaction (NanoBRET assay in HEK293T cells) EUB0000121b CDK15; assay type: cell-based; conditions: HEK-293T, at 10 µM
[7] = biological target: CDK12/Cyclin K (Homo sapiens) (UniProt O75909+Q9NYV4); assay: Selectivity interaction (NanoBRET assay in HEK293T cells) EUB0000121b CDK12; assay type: cell-based; conditions: HEK-293T, at 10 µM
[8] = biological target: Cyclin-dependent kinase 2/cyclin E1 (Homo sapiens) (UniProt P24864+P24941); assay: Selectivity interaction (NanoBRET assay in HEK293T cells) EUB0000121b CDK2; assay type: cell-based; conditions: HEK-293T, at 10 µM
[9] = biological target: T2, Glycogen synthase kinase-3 alpha (Homo sapiens, UniProt P49840); assay: (§1) Selectivity interaction (Radiometric assay (Reaction Biology)) EUB0000121b GSK3A; conditions: at 10 µM
Target sequence in this assay (P49840 2-483 limits assumed): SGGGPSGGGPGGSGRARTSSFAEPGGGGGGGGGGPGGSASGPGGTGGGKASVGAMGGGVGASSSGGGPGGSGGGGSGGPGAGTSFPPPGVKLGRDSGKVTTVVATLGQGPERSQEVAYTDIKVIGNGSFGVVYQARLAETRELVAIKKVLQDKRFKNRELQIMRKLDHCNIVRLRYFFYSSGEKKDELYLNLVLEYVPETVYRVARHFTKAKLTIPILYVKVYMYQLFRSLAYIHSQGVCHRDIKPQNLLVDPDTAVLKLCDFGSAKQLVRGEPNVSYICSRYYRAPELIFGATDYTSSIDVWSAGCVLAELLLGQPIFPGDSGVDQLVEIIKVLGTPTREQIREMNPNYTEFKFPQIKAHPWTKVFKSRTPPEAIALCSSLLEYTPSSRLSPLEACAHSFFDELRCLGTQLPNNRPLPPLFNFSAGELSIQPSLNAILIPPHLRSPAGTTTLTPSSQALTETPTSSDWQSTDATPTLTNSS

[10] = biological target: CDK1/Cyclin E (Homo sapiens) (UniProt P06493+P24864); assay: Selectivity interaction (NanoBRET assay in HEK293T cells) EUB0000121b CDK1; assay type: cell-based; conditions: HEK-293T, at 10 µM
Sequence of CDK1/Cyclin E (Homo sapiens) (P06493 whole entry, looked up): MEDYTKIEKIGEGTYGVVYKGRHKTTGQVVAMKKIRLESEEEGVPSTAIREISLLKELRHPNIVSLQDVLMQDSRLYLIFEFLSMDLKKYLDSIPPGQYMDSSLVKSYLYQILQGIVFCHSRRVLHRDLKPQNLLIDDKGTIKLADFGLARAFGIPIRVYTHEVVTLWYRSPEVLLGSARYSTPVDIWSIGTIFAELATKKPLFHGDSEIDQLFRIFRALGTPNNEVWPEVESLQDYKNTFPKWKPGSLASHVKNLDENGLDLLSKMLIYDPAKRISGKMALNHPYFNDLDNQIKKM
Sequence of CDK1/Cyclin E (Homo sapiens) (P24864 whole entry, looked up): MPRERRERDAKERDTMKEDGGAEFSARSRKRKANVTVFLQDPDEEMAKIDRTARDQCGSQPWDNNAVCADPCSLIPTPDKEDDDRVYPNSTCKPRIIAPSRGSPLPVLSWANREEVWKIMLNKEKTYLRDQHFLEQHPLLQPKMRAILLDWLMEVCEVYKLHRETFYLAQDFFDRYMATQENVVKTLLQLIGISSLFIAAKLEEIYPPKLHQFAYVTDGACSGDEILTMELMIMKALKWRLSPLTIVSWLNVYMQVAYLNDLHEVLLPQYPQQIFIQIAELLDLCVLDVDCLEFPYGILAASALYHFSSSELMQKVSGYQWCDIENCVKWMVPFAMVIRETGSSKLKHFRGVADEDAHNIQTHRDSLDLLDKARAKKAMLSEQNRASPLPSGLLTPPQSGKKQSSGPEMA

[11] = biological target: CDK8/Cyclin C (Homo sapiens) (UniProt P49336+P24863); assay: Selectivity interaction (NanoBRET assay in HEK293T cells) EUB0000121b CDK8; assay type: cell-based; conditions: HEK-293T, at 10 µM
[12] = biological target: Cyclin-dependent kinase 14/Cyclin-Y (Homo sapiens) (UniProt O94921+Q8ND76); assay: Selectivity interaction (NanoBRET assay in HEK293T cells) EUB0000121b CDK14; assay type: cell-based; conditions: HEK-293T, at 10 µM
CDK7/Cyclin H/MNAT1 [13] = biological target: T3, CDK7/Cyclin H/MNAT1 (Homo sapiens, UniProt P50613); assay: Selectivity interaction ( In-vitro potency (TR-FRET-based LANCE Ultra assay)) EUB0000121b CDK7; assay type: protein-complex assay
T3 sequence (P51946 whole entry): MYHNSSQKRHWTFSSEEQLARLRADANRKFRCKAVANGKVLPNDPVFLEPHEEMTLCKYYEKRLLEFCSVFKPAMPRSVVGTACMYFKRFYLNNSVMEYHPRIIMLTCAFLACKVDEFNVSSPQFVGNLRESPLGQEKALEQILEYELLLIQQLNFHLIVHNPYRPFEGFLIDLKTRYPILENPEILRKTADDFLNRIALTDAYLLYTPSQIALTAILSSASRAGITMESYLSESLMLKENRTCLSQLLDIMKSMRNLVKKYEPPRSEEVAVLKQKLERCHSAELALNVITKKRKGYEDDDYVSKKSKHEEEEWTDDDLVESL
T3 sequence (P50613 whole entry): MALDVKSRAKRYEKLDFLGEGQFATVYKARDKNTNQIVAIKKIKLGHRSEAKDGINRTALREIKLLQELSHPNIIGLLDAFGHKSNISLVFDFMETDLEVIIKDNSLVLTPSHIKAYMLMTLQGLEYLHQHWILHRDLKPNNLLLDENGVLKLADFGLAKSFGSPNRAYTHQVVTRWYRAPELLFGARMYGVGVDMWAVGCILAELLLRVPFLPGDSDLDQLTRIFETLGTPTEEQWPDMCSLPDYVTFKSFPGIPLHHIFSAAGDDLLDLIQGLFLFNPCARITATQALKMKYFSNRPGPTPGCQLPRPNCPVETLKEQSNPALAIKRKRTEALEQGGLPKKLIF
T3 sequence (P51948 whole entry, further chain): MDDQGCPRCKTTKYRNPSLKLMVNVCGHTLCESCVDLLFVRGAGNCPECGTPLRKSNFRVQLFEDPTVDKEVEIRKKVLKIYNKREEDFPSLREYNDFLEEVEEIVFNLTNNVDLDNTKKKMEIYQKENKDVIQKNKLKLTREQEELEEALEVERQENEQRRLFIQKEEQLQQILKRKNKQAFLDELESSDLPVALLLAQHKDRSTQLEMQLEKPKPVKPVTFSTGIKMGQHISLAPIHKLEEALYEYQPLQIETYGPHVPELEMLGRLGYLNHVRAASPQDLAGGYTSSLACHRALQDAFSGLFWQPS

[14] = biological target: CDK10/Cyclin L2 (Homo sapiens) (UniProt Q15131+Q96S94); assay: Selectivity interaction (NanoBRET assay in HEK293T cells) EUB0000121b CDK10; assay type: cell-based; conditions: HEK-293T, at 10 µM
[15] = biological target: Cyclin-dependent kinase 7 (Homo sapiens, UniProt P50613); assay: Selectivity interaction (NanoBRET assay in HEK293T cells) EUB0000121b CDK7; assay type: cell-based; conditions: HEK-293T, at 10 µM
Sequence of Cyclin-dependent kinase 7 (P50613 whole entry): as the sequence (P50613 whole entry) above

[16] = biological target: CDK9/Cyclin K (Homo sapiens) (UniProt P50750+O75909); assay: Selectivity interaction (NanoBRET assay in HEK293T cells) EUB0000121b CDK9; assay type: cell-based; conditions: HEK-293T, at 10 µM
[17] = biological target: CDK6/cyclin D1 (Homo sapiens) (UniProt P24385+Q00534); assay: Selectivity interaction (NanoBRET assay in HEK293T cells) EUB0000121b CDK6; assay type: cell-based; conditions: HEK-293T, at 10 µM
[18] = biological target: T4, Mitogen-activated protein kinase kinase kinase kinase 4 (Homo sapiens, UniProt O95819); assay: (§2) Selectivity interaction (Radiometric assay (Reaction Biology)) EUB0000121b MAP4K4
[19] = biological target: CDK17/Cyclin-Y (Homo sapiens) (UniProt Q00537+Q8ND76); assay: Selectivity interaction (NanoBRET assay in HEK293T cells) EUB0000121b CDK17; assay type: cell-based; conditions: HEK-293T, at 10 µM
[20] = biological target: CDK18/Cyclin Y (Homo sapiens) (UniProt Q07002+Q8ND76); assay: Selectivity interaction (NanoBRET assay in HEK293T cells) EUB0000121b CDK18; assay type: cell-based; conditions: HEK-293T, at 10 µM
[21] = biological target: Cyclin-dependent kinase 4/cyclin D1 (Homo sapiens) (UniProt P11802+P24385); assay: Selectivity interaction (NanoBRET assay in HEK293T cells) EUB0000121b CDK4; assay type: cell-based; conditions: HEK-293T, at 10 µM
[22] = biological target: CDK11A/Cyclin L2 (Homo sapiens) (UniProt Q9UQ88+Q96S94); assay: Selectivity interaction (NanoBRET assay in HEK293T cells) EUB0000121b CDK11A; assay type: cell-based; conditions: HEK-293T, at 10 µM
[23] = biological target: CDK3/Cyclin E (Homo sapiens) (UniProt P24864+Q00526); assay: Selectivity interaction (NanoBRET assay in HEK293T cells) EUB0000121b CDK3; assay type: cell-based; conditions: HEK-293T, at 10 µM
CDK7/Cyclin H/MNAT1 [24] = biological target: T3, CDK7/Cyclin H/MNAT1; assay: Selectivity interaction (LanthaScreen Eu Kinase Binding Assay (Invitrogen)) EUB0000121b CDK7; assay type: protein-complex assay
[25] = biological target: Cyclin-dependent kinase 13/Cyclin-K (Homo sapiens) (UniProt Q14004+O75909); assay: Selectivity interaction (NanoBRET assay in HEK293T cells) EUB0000121b CDK13; assay type: cell-based; conditions: HEK-293T, at 10 µM
[26] = biological target: T5, Tyrosine-protein kinase ABL2 (Homo sapiens, UniProt P42684); assay: (§3) Selectivity interaction (Radiometric assay (Reaction Biology)) EUB0000121b ABL2
T5 sequence (P42684 whole entry): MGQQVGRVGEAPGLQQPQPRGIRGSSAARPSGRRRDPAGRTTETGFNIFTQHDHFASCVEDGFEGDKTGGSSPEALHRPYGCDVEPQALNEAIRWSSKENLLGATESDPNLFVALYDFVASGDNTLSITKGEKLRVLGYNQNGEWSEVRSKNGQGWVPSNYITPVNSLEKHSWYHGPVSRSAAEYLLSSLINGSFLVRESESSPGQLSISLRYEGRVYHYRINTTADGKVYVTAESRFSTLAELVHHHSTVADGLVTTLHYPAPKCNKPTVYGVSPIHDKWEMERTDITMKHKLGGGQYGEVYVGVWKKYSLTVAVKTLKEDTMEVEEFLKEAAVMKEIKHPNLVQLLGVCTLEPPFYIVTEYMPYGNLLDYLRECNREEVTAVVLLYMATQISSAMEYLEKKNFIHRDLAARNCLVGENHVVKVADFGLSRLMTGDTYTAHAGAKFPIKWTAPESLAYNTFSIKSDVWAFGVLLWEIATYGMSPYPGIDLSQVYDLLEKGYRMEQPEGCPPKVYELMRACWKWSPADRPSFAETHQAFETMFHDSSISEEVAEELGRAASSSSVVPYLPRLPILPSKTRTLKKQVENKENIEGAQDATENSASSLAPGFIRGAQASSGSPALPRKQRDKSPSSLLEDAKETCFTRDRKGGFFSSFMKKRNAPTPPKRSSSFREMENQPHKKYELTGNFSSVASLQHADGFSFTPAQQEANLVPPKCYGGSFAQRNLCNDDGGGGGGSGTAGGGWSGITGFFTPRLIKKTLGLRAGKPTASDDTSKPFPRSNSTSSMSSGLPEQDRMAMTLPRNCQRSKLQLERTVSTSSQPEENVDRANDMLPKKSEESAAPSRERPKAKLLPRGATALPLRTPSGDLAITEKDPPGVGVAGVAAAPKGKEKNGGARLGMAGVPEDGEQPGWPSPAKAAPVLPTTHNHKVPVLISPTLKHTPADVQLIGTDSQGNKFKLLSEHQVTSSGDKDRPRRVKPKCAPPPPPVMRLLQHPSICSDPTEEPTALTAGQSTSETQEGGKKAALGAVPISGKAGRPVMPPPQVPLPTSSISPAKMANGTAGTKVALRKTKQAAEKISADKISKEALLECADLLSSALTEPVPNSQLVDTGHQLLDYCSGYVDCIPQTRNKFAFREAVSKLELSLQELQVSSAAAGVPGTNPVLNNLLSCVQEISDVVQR

[27] = biological target: T5, Tyrosine-protein kinase ABL2; assay: as §3; conditions: at 10 µM
[28] = biological target: CDK20/Cyclin H (Homo sapiens) (UniProt P51946+Q8IZL9); assay: Selectivity interaction (NanoBRET assay in HEK293T cells) EUB0000121b CDK20; assay type: cell-based; conditions: HEK-293T, at 10 µM
CDK6/cyclin D3 = CDK6/cyclin D3 (Homo sapiens, UniProt Q00534); assay: Selectivity interaction ( In-vitro potency (TR-FRET-based LANCE Ultra assay)) EUB0000121b CDK6; assay type: protein-complex assay
[29] = biological target: T2, Glycogen synthase kinase-3 alpha; assay: as §1
Target sequence in this assay (P49840 whole entry): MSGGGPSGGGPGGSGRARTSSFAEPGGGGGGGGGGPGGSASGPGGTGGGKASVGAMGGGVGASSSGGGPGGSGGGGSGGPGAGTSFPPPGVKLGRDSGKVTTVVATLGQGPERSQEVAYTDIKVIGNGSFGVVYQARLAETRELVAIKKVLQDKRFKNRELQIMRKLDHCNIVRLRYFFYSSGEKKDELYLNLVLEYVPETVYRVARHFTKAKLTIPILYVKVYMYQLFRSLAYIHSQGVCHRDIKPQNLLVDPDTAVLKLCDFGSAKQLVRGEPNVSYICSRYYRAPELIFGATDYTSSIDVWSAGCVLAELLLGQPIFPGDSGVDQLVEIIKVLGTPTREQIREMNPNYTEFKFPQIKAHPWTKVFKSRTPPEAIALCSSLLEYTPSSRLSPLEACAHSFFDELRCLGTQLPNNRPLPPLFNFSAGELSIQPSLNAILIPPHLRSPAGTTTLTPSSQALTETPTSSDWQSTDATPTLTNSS

[30] = biological target: Calcium/calmodulin-dependent protein kinase type IV (Homo sapiens, UniProt Q16566); assay: Selectivity interaction (Radiometric assay (Reaction Biology)) EUB0000121b CAMK4
[31] = biological target: CDK11B/Cyclin L2 (Homo sapiens) (UniProt P21127+Q96S94); assay: Selectivity interaction (NanoBRET assay in HEK293T cells) EUB0000121b CDK11B; assay type: cell-based; conditions: HEK-293T, at 10 µM
[32] = biological target: Cyclin-Y/Cyclin-dependent kinase 16 (Homo sapiens) (UniProt Q00536+Q8ND76); assay: Selectivity interaction (NanoBRET assay in HEK293T cells) EUB0000121b CDK16; assay type: cell-based; conditions: HEK-293T, at 10 µM
[33] = biological target: Cyclin-C/Cyclin-dependent kinase 19 (Homo sapiens) (UniProt Q9BWU1+P24863); assay: Selectivity interaction (NanoBRET assay in HEK293T cells) EUB0000121b CDK19; assay type: cell-based; conditions: HEK-293T, at 10 µM
[34] = biological target: T4, Mitogen-activated protein kinase kinase kinase kinase 4; assay: as §2; conditions: at 10 µM
[35] = biological target: Cyclin-dependent kinase 2/cyclin A (Homo sapiens, UniProt P24941); assay: Selectivity interaction (LanthaScreen Eu Kinase Binding Assay (Invitrogen)) EUB0000121b CDK2; assay type: protein-complex assay
[36] = biological target: Cyclin-dependent kinase 5/CDK5 activator 1 (Homo sapiens) (UniProt Q00535+Q15078); assay: Selectivity interaction (NanoBRET assay in HEK293T cells) EUB0000121b CDK5; assay type: cell-based; conditions: HEK-293T, at 10 µM
Sequence of Cyclin-dependent kinase 5/CDK5 activator 1 (Homo sapiens) (Q00535 whole entry): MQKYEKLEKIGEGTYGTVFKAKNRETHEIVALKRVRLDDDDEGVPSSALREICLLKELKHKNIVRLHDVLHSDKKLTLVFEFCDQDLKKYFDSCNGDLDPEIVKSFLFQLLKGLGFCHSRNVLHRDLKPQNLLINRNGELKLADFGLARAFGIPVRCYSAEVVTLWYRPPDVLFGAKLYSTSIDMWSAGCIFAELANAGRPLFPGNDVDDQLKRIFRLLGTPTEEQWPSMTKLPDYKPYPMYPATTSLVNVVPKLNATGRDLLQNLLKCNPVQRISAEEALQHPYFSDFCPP
Sequence of Cyclin-dependent kinase 5/CDK5 activator 1 (Homo sapiens) (Q15078 99-307 partner limits assumed): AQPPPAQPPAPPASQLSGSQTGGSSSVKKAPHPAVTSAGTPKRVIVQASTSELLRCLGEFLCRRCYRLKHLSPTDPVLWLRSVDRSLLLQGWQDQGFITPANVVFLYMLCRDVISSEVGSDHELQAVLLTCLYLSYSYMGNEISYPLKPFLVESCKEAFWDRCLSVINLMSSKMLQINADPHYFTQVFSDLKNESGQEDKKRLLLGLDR

Q: `CC(C)Oc1ccc(-c2c[nH]cc2CN(C)CCO)cc1` was tested. Which IC50 [1] did it give?
A: > 20 µM

Q: What about the IC50 [2] of the same molecule?
A: > 20 µM

Q: What about the IC50 [3] of the same molecule?
A: > 20 µM

Q: What about the IC50 [4] of the same molecule?
A: > 20 µM

Q: And the IC50 [5]?
A: > 20 µM

Q: For `COc1ccccc1-c1cc(Nc2cccc(CS(N)(=O)=O)c2)ncn1`, which % of inhibition [6] is on record?
A: -1%

Q: What about the % of inhibition [7] of the same molecule?
A: 22.1%

Q: And the % of inhibition [8]?
A: 18.7%

Q: What about the % of control [9] of the same molecule?
A: 9.5%

Q: And the % of inhibition [10]?
A: 31.6%

Q: What about the % of inhibition [11] of the same molecule?
A: 5.3%

Q: And the % of inhibition [12]?
A: -2.3%

Q: And the IC50 (CDK7/Cyclin H/MNAT1 [13])?
A: > 10 µM

Q: And the % of inhibition [14]?
A: 6.6%

Q: What about the % of inhibition [15] of the same molecule?
A: -9.3%

Q: What about the % of inhibition [16] of the same molecule?
A: 88.8%

Q: And the % of inhibition [17]?
A: 38.7%

Q: What about the IC50 [18] of the same molecule?
A: 820 nM

Q: What about the % of inhibition [19] of the same molecule?
A: 19%

Q: What about the % of inhibition [20] of the same molecule?
A: 8.7%

Q: And the % of inhibition [21]?
A: 44%

Q: And the % of inhibition [22]?
A: 7.5%

Q: What about the % of inhibition [23] of the same molecule?
A: 27.7%

Q: What about the IC50 (CDK7/Cyclin H/MNAT1 [24]) of the same molecule?
A: 16 µM

Q: And the % of inhibition [25]?
A: 10.2%

Q: What about the IC50 [26] of the same molecule?
A: 3.64 µM

Q: What about the % of control [27] of the same molecule?
A: 27%

Q: What about the % of inhibition [28] of the same molecule?
A: 14.5%

Q: What about the IC50 (CDK6/cyclin D3) of the same molecule?
A: > 10 µM

Q: And the IC50 [29]?
A: 1460 nM

Q: And the IC50 [30]?
A: > 20 µM

Q: And the % of inhibition [31]?
A: 10.2%

Q: And the % of inhibition [32]?
A: 14.8%

Q: What about the % of inhibition [33] of the same molecule?
A: 11.4%

Q: What about the % of control [34] of the same molecule?
A: 17.5%

Q: What about the IC50 [35] of the same molecule?
A: 1010 nM

Q: And the % of inhibition [36]?
A: 11.4%
